Results reported in US20250346592A1 (Celgene Corporation, priority 2022, published 2025).

How the values were obtained:
hPAD4 enzyme [1] = biological target: T1, hPAD4 enzyme (Homo sapiens (Human), UniProt Q9UM07); experiment: RFMS1 assay (RapidFire mass spectrometry, BAEE substrate); format: biochemical; details: 5 nM hPAD4, 250 μM BAEE, 30 min preincubation at 37° C., 90 min reaction; read-out: RFMS 1 IC50
Procedure: Compounds were solubilized in 100% DMSO to achieve a 10 mM compound concentration. Compound stock solutions were stored at RT. A series of dilutions were prepared in DMSO and mixed 8 times with 20 μL mixing volume. Final top concentration of compound in the assay is 50 μM. Final assay conditions were as follows: • Reaction volume: 26 μl • Assay buffer: 25 mM hepes, pH 7.5, 5 mM NaCl, 1 mM DTT, 0.2 mg/ml BSA, 0.01% CHAPS, 50 µM Calcium, and 5 μM TPEN • Final concentrations: 5 nM hPAD4 enzyme, 250 µM BAEE, and 0.5% DMSO • Total incubation time: 30 mins compound and enzyme preincubation at 37° C., 90 min enzyme/substrate reaction, 30 min reaction with phenyl glyoxal at 37° C. • Stop solution: 40 μl 5% TCA in ACN • 0.13 μL of compound solution was added to 13 μL of 10 nM PAD4 in assay buffer. After […] min 13 μl of 500 µM of BAEE was added in 25 mM hepes, pH 7.5, 5 mM NaCl, 1 mM DTT, 0.2 mg/ml BSA, 0.01% CHAPS, 50 μM Calcium, 5 μM TPEN was added and the reaction incubated for 90 min at 37° C. The enzymatic reaction was quenched by addition of 15 μl of 6.1N TCA, 100% Final Concentration is 20%, 35 μl of 8.5 mM phenyl glyoxal (final concentration 4 mM) is then added and the reaction is incubated for 30 min at 37° C.
After 30 minutes the plates are spun down to remove all precipitate. The enzyme reaction was quenched with an equal volume of methanol containing internal standard (modified citrulline). Samples were loaded onto the Rapid Fire RF300 system (Agilent) wherein they were first sipped for 1000 ms and then directly loaded to a C18 separations cartridge using a mixture of acetonitrile containing 0.01% formic acid for 3000 ms desalting. The flow rate of the mobile phase was 1.5 ml/min. Once the samples were eluted from the cartridge, a mobile phase of acetonitrile containing 0.01% formic acid was used to move the samples into the mass spectrometer for 4000 ms at a flow rate of 1.25 ml/min/Sciex API5500 triple quadrupole mass spectrometer (Applied Biosystems) equipped with ESI was used to analyze the peptidyl citrulline and internal standard ions.
MRM transition of product and internal standard were monitored at m/z 424.5 to 350.4 and m/z 293 to 247 respectively. The dwell time for each transition was set at 200 ms, and the ESI voltage was used at 5500 with a source temperature of 400° C. Extracted ion peaks for each transition were integrated using the Rapid Fire Integrator software. Peak area of analyte was normalized with internal standard.).
Compounds having an activity designated as “A” provided an IC50≤10 nM; compounds having an activity designated as “B” provided an IC50 11-100 nM; compounds having an activity designated as “C” provided an IC50 101-500 nM; compounds having an activity designated as “D” provided an IC50 501-1000 nM; compounds having an activity designated as “E” provided an IC50>1000 nM.

hPAD4 enzyme [2] = biological target: T1, hPAD4 enzyme; experiment: RFMS2 assay (RapidFire mass spectrometry, TSTGGRQGSHH peptide substrate); format: biochemical; details: 35 nM recombinant human PAD4, 500 μM TSTGGRQGSHH peptide, 30 minutes at room temperature; read-out: RFMS 2 IC50
In short: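 IC50 derived from RapidFire LC-MS/MS (positive ESI MRM) of substrate versus product after a 30 min room-temperature reaction stopped with 10% formic acid. Reaction contained 35 nM human PAD4, 500 μM peptide, 2 mM CaCl2, 5 mM DTT at pH 7.4, and compounds diluted 3-fold from 20 μM.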

T1 sequence (Q9UM07 whole entry): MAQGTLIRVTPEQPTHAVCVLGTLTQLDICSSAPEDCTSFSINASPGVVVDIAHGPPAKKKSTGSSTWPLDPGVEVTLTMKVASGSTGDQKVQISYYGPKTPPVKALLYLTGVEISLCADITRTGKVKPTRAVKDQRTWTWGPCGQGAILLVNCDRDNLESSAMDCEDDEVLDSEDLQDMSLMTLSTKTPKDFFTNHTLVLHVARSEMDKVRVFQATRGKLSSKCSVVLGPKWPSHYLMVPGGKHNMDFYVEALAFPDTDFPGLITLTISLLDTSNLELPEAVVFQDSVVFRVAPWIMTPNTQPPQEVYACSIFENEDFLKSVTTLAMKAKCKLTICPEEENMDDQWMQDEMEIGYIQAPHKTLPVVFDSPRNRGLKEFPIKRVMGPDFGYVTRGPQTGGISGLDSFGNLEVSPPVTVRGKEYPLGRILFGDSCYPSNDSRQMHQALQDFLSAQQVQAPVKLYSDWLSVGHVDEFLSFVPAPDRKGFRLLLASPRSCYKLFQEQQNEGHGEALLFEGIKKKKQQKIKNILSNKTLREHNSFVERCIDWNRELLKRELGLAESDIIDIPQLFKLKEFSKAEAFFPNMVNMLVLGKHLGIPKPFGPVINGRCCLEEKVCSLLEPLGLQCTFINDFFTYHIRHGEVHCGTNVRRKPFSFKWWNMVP

IC50 (hPAD4 enzyme [1]) [nM] | IC50 (hPAD4 enzyme [2]) [nM] | SMILES
501 to 1000 | 101 to 500 | CN[C@H](C)CN1CCc2cc3c(cc2C1=O)nc(-c1cc2ccccc2n1CC1CC1)n3C [Example 1, (R)-2-(1-(cyclopropylmethyl)-1H-indol-2-yl)-1-methyl-6-(2-(methylamino)propyl)-1,6,7,8-tetrahydro-5H-imidazo[4,5-g]isoquinolin-5-one]
> 1000 | > 1000 | C[C@H](CN1CCc2cc3c(cc2C1=O)nc(-c1cc2ccccc2n1CC1CC1)n3C)NCCF [Example 3, (R)-2-(1-(cyclopropylmethyl)-1H-indol-2-yl)-6-(2-((2-fluoroethyl)amino)propyl)-1-methyl-1,6,7,8-tetrahydro-5H-imidazo[4,5-g]isoquinolin-5-one]
101 to 500 | 101 to 500 | C[C@@H](N)CN1CCc2cc3c(cc2C1=O)nc(-c1cc2ccccc2n1CC1CC1)n3C [Example 5, (R)-6-(2-aminopropyl)-2-(1-(cyclopropylmethyl)-1H-indol-2-yl)-1-methyl-1,6,7,8-tetrahydro-5H-imidazo[4,5-g]isoquinolin-5-one]
> 1000 | > 1000 | Cn1c(-c2cc3ccccc3n2CC2CC2)nc2cc3c(cc21)CCN(CC(C)(C)N)C3=O [Example 6, 6-(2-amino-2-methyl-propyl)-2-[1-(cyclopropylmethyl)indol-2-yl]-1-methyl-7,8-dihydroimidazo[4,5-g]isoquinolin-5-one]
501 to 1000 | 101 to 500 | CC[C@@H](N)CN1CCc2cc3c(cc2C1=O)nc(-c1cc2ccccc2n1CC1CC1)n3C [Example 9, (R)-6-(2-aminobutyl)-2-(1-(cyclopropylmethyl)-1H-indol-2-yl)-1-methyl-1,6,7,8-tetrahydro-5H-imidazo[4,5-g]isoquinolin-5-one]
≤ 10 | – | C[C@H](COc1cccc2cc(-c3nc4cc5c(cc4n3C)CCN(C[C@@H](C)N)C5=O)n(CC3CC3)c12)n1cnc(F)c1 [Example 230, 6-((R)-2-aminopropyl)-2-(1-(cyclopropylmethyl)-7-((R)-2-(4-fluoro-1H-imidazol-1-yl)propoxy)-1H-indol-2-yl)-1-methyl-1,6,7,8-tetrahydro-5H-imidazo[4,5-g]isoquinolin-5-one]
101 to 500 | – | COc1cccc2cc(-c3nc4cc5c(cc4n3C)CCN(C[C@H]3COCCN3)C5=O)n(CCOC(F)F)c12 [Example 233, (S)-2-(1-(2-(difluoromethoxy)ethyl)-7-methoxy-1H-indol-2-yl)-1-methyl-6-(morpholin-3-ylmethyl)-1,6,7,8-tetrahydro-5H-imidazo[4,5-g]isoquinolin-5-one]
≤ 10 | – | C[C@H](COc1cccc2cc(-c3nc4cc5c(cc4n3C)CCN(C[C@H]3COCCN3)C5=O)n(CC3CC3)c12)n1cnc(F)c1 [Example 235, 2-(1-(cyclopropylmethyl)-7-((R)-2-(4-fluoro-1H-imidazol-1-yl)propoxy)-1H-indol-2-yl)-1-methyl-6-(((S)-morpholin-3-yl)methyl)-1,6,7,8-tetrahydro-5H-imidazo[4,5-g]isoquinolin-5-one]
101 to 500 | – | COc1cccc2cc(-c3nc4cc5c(c(F)c4n3C)CCN(C[C@H]3COCCN3)C5=O)n(CC3CC3)c12 [Example 240, (S)-2-(1-(cyclopropylmethyl)-7-methoxy-1H-indol-2-yl)-9-fluoro-1-methyl-6-(morpholin-3-ylmethyl)-1,6,7,8-tetrahydro-5H-imidazo[4,5-g]isoquinolin-5-one]
≤ 10 | – | C[C@H](COc1cccc2cc(-c3nc4cc5c(c(F)c4n3C)CCN(C[C@H](N)CF)C5=O)n(CC3CC3)c12)n1cnc(F)c1 [Example 241, 6-((S)-2-amino-3-fluoropropyl)-2-(1-(cyclopropylmethyl)-7-((R)-2-(4-fluoro-1H-imidazol-1-yl)propoxy)-1H-indol-2-yl)-9-fluoro-1-methyl-1,6,7,8-tetrahydro-5H-imidazo[4,5-g]isoquinolin-5-one]
≤ 10 | – | C[C@H](COc1cccc2cc(-c3nc4cc5c(c(F)c4n3C)CCN(C[C@H]3COCCN3)C5=O)n(CC3CC3)c12)n1cnc(F)c1 [Example 242, 2-(1-(cyclopropylmethyl)-7-((R)-2-(4-fluoro-1H-imidazol-1-yl)propoxy)-1H-indol-2-yl)-9-fluoro-1-methyl-6-(((S)-morpholin-3-yl)methyl)-1,6,7,8-tetrahydro-5H-imidazo[4,5-g]isoquinolin-5-one]
11 to 100 | – | CC(=O)N1CCC(c2cccc3cc(-c4nc5cc6c(cc5n4C)CCN(C[C@H]4COCCN4)C6=O)n(CC4CC4)c23)CC1 [Example 243, (S)-2-(7-(1-acetylpiperidin-4-yl)-1-(cyclopropylmethyl)-1H-indol-2-yl)-1-methyl-6-(morpholin-3-ylmethyl)-1,6,7,8-tetrahydro-5H-imidazo[4,5-g]isoquinolin-5-one]
11 to 100 | – | COCC(=O)N1CCC(c2cccc3cc(-c4nc5cc6c(cc5n4C)CCN(C[C@H]4COCCN4)C6=O)n(CC4CC4)c23)CC1 [Example 244, (S)-2-(1-(cyclopropylmethyl)-7-(1-(2-methoxyacetyl)piperidin-4-yl)-1H-indol-2-yl)-1-methyl-6-(morpholin-3-ylmethyl)-1,6,7,8-tetrahydro-5H-imidazo[4,5-g]isoquinolin-5-one]
101 to 500 | – | Cc1cc(C(N)=O)c(F)cc1-c1ccc2cc(-c3nc4cc5c(cc4n3C)CCN(C[C@H]3COCCN3)C5=O)n(CC3CC3)c2n1 [Example 245, (S)-4-(1-(cyclopropylmethyl)-2-(1-methyl-6-(morpholin-3-ylmethyl)-5-oxo-5,6,7,8-tetrahydro-1H-imidazo[4,5-g]isoquinolin-2-yl)-1H-pyrrolo[2,3-b]pyridin-6-yl)-2-fluoro-5-methylbenzamide]
11 to 100 | – | Cc1cc(N2CCCS2(=O)=O)ccc1-c1ccc2cc(-c3nc4cc5c(cc4n3C)CCN(C[C@H]3COCCN3)C5=O)n(CC3CC3)c2n1 [Example 246, (S)-2-(1-(cyclopropylmethyl)-6-(4-(1,1-dioxidoisothiazolidin-2-yl)-2-methylphenyl)-1H-pyrrolo[2,3-b]pyridin-2-yl)-1-methyl-6-(morpholin-3-ylmethyl)-1,6,7,8-tetrahydro-5H-imidazo[4,5-g]isoquinolin-5-one]
11 to 100 | – | Cc1cc(N2CC(C)(C)OC2=O)ccc1-c1ccc2cc(-c3nc4cc5c(cc4n3C)CCN(C[C@H]3COCCN3)C5=O)n(CC3CC3)c2n1 [Example 247, (S)-3-(4-(1-(cyclopropylmethyl)-2-(1-methyl-6-(morpholin-3-ylmethyl)-5-oxo-5,6,7,8-tetrahydro-1H-imidazo[4,5-g]isoquinolin-2-yl)-1H-pyrrolo[2,3-b]pyridin-6-yl)-3-methylphenyl)-5,5-dimethyloxazolidin-2-one]
501 to 1000 | – | Cn1c(-c2cc3ccc(-c4cccc(O)c4F)nc3n2CC2CC2)nc2cc3c(cc21)CCN(C[C@H]1COCCN1)C3=O [Example 248, (S)-2-(1-(cyclopropylmethyl)-6-(2-fluoro-3-hydroxyphenyl)-1H-pyrrolo[2,3-b]pyridin-2-yl)-1-methyl-6-(morpholin-3-ylmethyl)-1,6,7,8-tetrahydro-5H-imidazo[4,5-g]isoquinolin-5-one]
501 to 1000 | – | COC1CCN(c2ccc3cc(-c4nc5cc6c(cc5n4C)CCN(C[C@H]4COCCN4)C6=O)n(CC4CC4)c3c2)CC1 [Example 249, (S)-2-(1-(cyclopropylmethyl)-6-(4-methoxypiperidin-1-yl)-1H-indol-2-yl)-1-methyl-6-(morpholin-3-ylmethyl)-1,6,7,8-tetrahydro-5H-imidazo[4,5-g]isoquinolin-5-one]
